The record followed here is ChEMBL document CHEMBL4665740, “Discovery of noscapine derivatives as potential β-tubulin inhibitors” (Bioorg Med Chem Lett, 2020).

The target in one test is Tubulin beta. Description: Binding affinity to CM5 chip immobilized beta tubulin (unknown origin) assessed as thermodynamic constants by SPR assay. It is filed as protein assay, Homo sapiens. (Surface plasmon resonance follows binding to a sensor surface in real time, without labels.)
Test [1] deals with MCF7. As to the kind of experiment: Cytotoxicity against human MCF7 cells assessed as mortality at 20 uM after 48 hrs by MTT assay. It is filed as functional, cell-based. In general terms: Tetrazolium assays rely on reduction of a dye to a coloured formazan, in cell work by metabolically active cells.
The test system of test [2] is MCF7. As to the kind of experiment: Cytotoxicity against human MCF7 cells assessed as mortality at 20 uM after 48 hrs by MTT assay relative to control. The format is functional.

The source made the active and inactive calls. The calls are words filed in the database; no cut-off is given here.

In the case of `CCC(O)Cn1cc(CN2CCc3c(Br)c4c(c(OC)c3[C@@H]2[C@H]2OC(=O)c3c2ccc(OC)c3OC)OCO4)nn1` (some centres not stated), at Tubulin beta, the Kd (as a rule, the free concentration of one partner at which half of the binding sites on the other are occupied at equilibrium, for simple one-to-one binding) came to 132 nM. For the same compound, in the test with MCF7 [1], the result was Active. In the case of `COc1ccc2c(c1OC)C(=O)O[C@@H]2[C@H]1c2c(c(Br)c3c(c2OC)OCO3)CCN1Cc1cn(CC(C)(C)O)nn1`, the outcome in the test with MCF7 [1] was Active. Regarding `COc1ccc2c(c1OC)C(=O)O[C@@H]2[C@H]1c2c(cc3c(c2OC)OCO3)CCN1Cc1cn(CC(C)(C)O)nn1`, the outcome in the test on MCF7 [1] was Active. Take `COc1ccc2c(c1OC)C(=O)O[C@@H]2[C@H]1c2c(c(Br)c3c(c2OC)OCO3)CCN1Cc1cn(-c2ccc(F)cc2)nn1`: the outcome in the test with MCF7 [1] was Active. For the compound `CCC(O)Cn1cc(CN2CCc3cc4c(c(OC)c3[C@@H]2[C@H]2OC(=O)c3c2ccc(OC)c3OC)OCO4)nn1` (some centres not stated), the Activity with MCF7 [2] is reported as 60%. On to `COc1ccc2c(c1OC)C(=O)O[C@@H]2[C@H]1c2c(c(Br)c3c(c2OC)OCO3)CCN1Cc1cn(-c2ccc(Cl)c(Cl)c2)nn1`, for which the Kd on Tubulin beta was 374.3 nM. For the same compound, the outcome in the test on MCF7 [1] was Active. As to `COc1ccc2c(c1OC)C(=O)O[C@@H]2[C@H]1c2c(c(Br)c3c(c2OC)OCO3)CCN1Cc1cn(-c2ccc(Br)cc2)nn1`, the Kd on Tubulin beta is 36.9 nM. Besides, in the test with MCF7 [2], the Activity stood at 60%. Taken in the same sequence, the figures for `COc1ccc2c(c1OC)C(=O)O[C@@H]2[C@H]1c2c(cc3c(c2OC)OCO3)CCN1C` [NOSCAPINE] were 579 nM and 20%. As for `COc1ccc(-n2cc(CN3CCc4c(Br)c5c(c(OC)c4[C@@H]3[C@H]3OC(=O)c4c3ccc(OC)c4OC)OCO5)nn2)cc1OC`, in the test on MCF7 [1], the result was Active. Regarding `COc1ccc2c(c1OC)C(=O)O[C@@H]2[C@H]1c2c(cc3c(c2OC)OCO3)CCN1Cc1cn(Cc2ccccc2)nn1`, the dissociation constant Kd at Tubulin beta is recorded as 133 nM. The Activity with MCF7 [2] worked out at 60%.

Take `COc1ccc2c(c1OC)C(=O)O[C@@H]2[C@H]1c2c(cc3c(c2OC)OCO3)CCN1Cc1cn(-c2ccc(F)cc2)nn1`: the Kd at Tubulin beta is on record as 21.5 nM. The result in the test with MCF7 [1] was Active.
